{
  "source": "patent US12194084B2",
  "about": "(priority 2019, dated 2025)",
  "key": {"[1]": {"test_system": "lymphocytes from MLN of Mtb-infected mice", "assay": "Recall response to Mtb lipids in Mtb-infected hCD1Tg mice (IFN-γ ELISPOT)", "type": "cell-based"}, "DN1 T cells": {"test_system": "DN1 T cells", "type": "cell-based, mouse", "conditions": "screen of 6 common adjuvants, CD69 on DN1 T cells", "experimental": "24 h later, the percentage of DN1 T cells expressing CD69 was determined by FACS. Data are representative of two experiments."}},
  "data": [
    {"substance": "Glucose monomycolate [GMM]", "values": [
      {"measurement": "T cell responses to Mtb lipid", "setting": "[1]", "result": "readily detected"}
    ]},
    {"substance": "Sulfoglycolipid [SGL]", "values": [
      {"measurement": "T cell responses to Mtb lipid", "setting": "[1]", "result": "readily detected"}
    ]},
    {"substance": "cyclic-di-GMP", "values": [
      {"measurement": "enhancement of a suboptimal dose of MA-MC", "setting": "DN1 T cells", "result": "top three candidates"}
    ]},
    {"substance": "monophosphoryl lipid A [MPLA]", "values": [
      {"measurement": "enhancement of a suboptimal dose of MA-MC", "setting": "DN1 T cells", "result": "top three candidates"}
    ]}
  ]
}
